Assay results from US4347319A, “Microbiological epoxidation process” (priority 1980, dated 1982).
Like-named read-outs stand apart in the source and are kept apart here.

Columns and labels:
[1] = tested on: cell-free soluble extract of Methylobacterium organophilium CRL 26 (NRRL B 11,222); conditions: NAD added
Protocol: (§1) To prepare the cell-free secondary alcohol dehydrogenous (SADH) system, the washed cells were disrupted with a Wave Energy Ultrasonic Oscillator, Model W201 (Wave Energy System, Inc., Newtown, Pa.) and centrifuged at 20,000×g. for 30 minutes. […] The enzyme activity was measured with a fluorescence spectrophotometer (Perkin Elmer, Model MPF 44A) by following the formation of reduced NAD (EX 340 nm, Em 460 nm). The formation of reduced NAD was also followed with an absorption spectrophotometer at 340 nm. The assay system (3 ml.) contained: potassium phosphate buffer pH 7.0; 150 μmol.; NAD 1 μmol.; a given amount of enzyme preparation; and secondary alcohol 10 μmol. The reaction was started by the addition of substrate. One unit of enzyme activity represents the reduction of one μmole NAD per minute. Protein concentrations were determined by the Lowry method as referenced above.
(§2) The experimental procedure for the tests reported in Table XVII were as follows: 1 mg protein of crude extract was added into a 0.5 ml. 0.05 M phosphate buffer (pH 7.0) in a 10-ml. vial. […] The reaction mixture was incubated at 30° C. on a water bath. A 3 μl sample was removed with a syringe at 15 min. of incubation and was assayed with g.l.c. Catalytic activity was also assayed by fluorescence spectrophotometry.

[2] = tested on: cell-free soluble extract of Methylococcus capsulatus CRL M1 (NRRL B-11,219); conditions: NAD added
Protocol: as §1, §2

[3] = tested on: cell-free soluble extract of Methylosinus trichosporium OB3b (NRRL B-11,196); conditions: NAD added
Protocol: as §1, §2

[4] = tested on: Candida utilis ATCC 26387; experiment: Oxidation of sec-alcohols to ketones by cell suspensions of yeasts; format: cell-based; conditions: sec-alcohol to methyl ketone
[5] = tested on: cell extract of Hansenula polymorpha ATCC 26,012; experiment: Oxidation of secondary alcohols to methylketone by cell extracts of yeasts; format: biochemical
[6] = tested on: cell extract of Torulopsis sp. strain A1 NRRL-Y-11,419; experiment: as above; format: biochemical
[7] = tested on: cell-free soluble extract of Pseudomonas sp. CRL 75 ATCC 21439; conditions: growth substrate CH3 OH; NAD added
Protocol: To prepare the cell-free secondary alcohol dehydrogenous (SADH) system, the washed cells were disrupted with a Wave Energy Ultrasonic Oscillator, Model W201 (Wave Energy System, Inc., Newtown, Pa.) and centrifuged at 20,000×g. for 30 minutes. The clear supernatant contained the SADH activity. The enzyme activity was measured with a fluorescence spectrophotometer (Perkin Elmer, Model MPF 44A) by following the formation of reduced NAD (EX 340 nm, Em 460 nm). The formation of reduced NAD was also followed with an absorption spectrophotometer at 340 nm. The assay system (3 ml.) contained: potassium phosphate buffer pH 7.0; 150 μmol.; NAD 1 μmol.; a given amount of enzyme preparation; and secondary alcohol 10 μmol. The reaction was started by the addition of substrate. One unit of enzyme activity represents the reduction of one μmole NAD per minute. Protein concentrations were determined by the Lowry method as referenced above.

[8] = tested on: methylotrophic microorganism strains of the present invention grown on methanol; experiment: Comparative test with methanol-grown washed cell suspensions; format: cell-based
[9] = 2-butanol as a substrate, spectrophotometrically
[10] = methanol-grown, cell extract + NAD^+, sec. alcohol to methyl ketone, gas chromatography

SMILES | Conversion Rate 2-butanol to 2-butanone ([1]; growth substrate CH3 OH) | Conversion Rate 2-butanol to 2-butanone ([1]; growth substrate CH4) | Conversion Rate 2-butanol to 2-butanone ([2]; growth substrate CH3 OH) | Conversion Rate 2-butanol to 2-butanone ([2]; growth substrate CH4) | Conversion Rate 2-butanol to 2-butanone ([3]; growth substrate CH3 OH) | Conversion Rate 2-butanol to 2-butanone ([3]; growth substrate CH4) | Conversion Rate ([4]; growth substrate Ethanol) | Conversion Rate ([4]; growth substrate Methanol) | Conversion Rate ([4]; growth substrate Methylamine) | Conversion Rate ([4]; growth substrate Methylformate) | Conversion Rate ([4]; growth substrate Propylamine) | specific activities [5, 9] | Conversion Rate [5, 10] | specific activities [6, 9] | Conversion Rate [6, 10] | Conversion Rate 2-butanol to 2-butanone [7] | hydroxylation / epoxidation ability [8]
CCC(C)O (centres unmarked) [2-Butanol] | 2.5 nmoles/min/mg protein | 1.8 nmoles/min/mg protein | 2.0 nmoles/min/mg protein | 3.2 nmoles/min/mg protein | 2.4 nmoles/min/mg protein | 4.5 nmoles/min/mg protein | 5.2 μmoles/hr/mg of protein | 6.8 μmoles/hr/mg of protein | 5.0 μmoles/hr/mg of protein | 6.2 μmoles/hr/mg of protein | 4.2 μmoles/hr/mg of protein | 85 nmoles NAD^+ reduced per min. per mg. protein | 5.2 μmoles/hr/mg Protein | 62 nmoles NAD^+ reduced per min. per mg. protein | 4.9 μmoles/hr/mg Protein | 25.0 nmoles/min/mg protein | –
C [Methane] | – | – | – | – | – | – | – | – | – | – | – | – | – | – | – | – | did not possess the ability
